Test results as given in paper PMC2990756, “Quantitative High-Throughput Screening Identifies 8-Hydroxyquinolines as Cell-Active Histone Demethylase Inhibitors” (PLoS ONE, 2010).
Read-outs that look alike come from different tables or passages of the source. Values belong to the compound of their own block, whether it stands above or below them.

Tests used:
Type in all cases: biochemical
[1] = target: T1, JMJD2E (Homo sapiens, UniProt B2RXH2); assay: JMJD2E FDH-coupled assay under low and high iron conditions (iron chelation profile); design: The catalytic domain of human JMJD2E (residues 1–337); His6 (N); made in house; host or cells: E. coli
T1 sequence (B2RXH2 1-337): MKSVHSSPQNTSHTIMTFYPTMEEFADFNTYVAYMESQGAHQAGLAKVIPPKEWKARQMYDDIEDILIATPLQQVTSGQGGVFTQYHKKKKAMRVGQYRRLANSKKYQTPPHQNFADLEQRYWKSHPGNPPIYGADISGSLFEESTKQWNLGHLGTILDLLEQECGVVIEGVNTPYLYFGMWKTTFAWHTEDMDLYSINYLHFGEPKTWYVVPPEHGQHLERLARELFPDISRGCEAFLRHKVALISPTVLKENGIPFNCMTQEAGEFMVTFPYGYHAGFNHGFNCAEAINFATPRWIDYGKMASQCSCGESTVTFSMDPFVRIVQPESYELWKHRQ
Experimental: The prioritized compounds were also evaluated in the screening assay using two different ferrous ion concentrations (termed high iron and low iron, respectively), in order to assess their propensity for iron chelation.
The ratio of IC50 values under high iron to low iron was calculated for each compound.

[2] = target: T2, formaldehyde dehydrogenase (FDH) (Pseudomonas putida, UniProt P46154); assay: FDH coupling enzyme counterscreen
T2 construct: purchased Sigma-Aldrich
Text: Dimethylsulfoxide certified ACS grade (DMSO) was from Fisher, Inc. HEPES buffer was obtained from Gibco. […] Black solid-bottom 1,536-well assay plates were from Greiner Bio-One (Monroe, NC).

[3] = target: T3, JMJD2E (KDM4E) (Homo sapiens, UniProt B2RXH2); assay: qHTS fluorescence FDH-coupled JMJD2E demethylase assay
T3 construct: The catalytic domain of human JMJD2E (residues 1–337); His6 (N); made in house; host or cells: E. coli
T3 sequence (B2RXH2 1-337): T1 sequence (B2RXH2 1-337)

[4] = Figure 2, 100 nM JMJD2E, 10 µM FAS, read-out: IC50 values in μM, qHTS
[5] = Figure 2, 0.025 U/mL FDH, 10 µM formaldehyde, read-out: IC50 values in μM, FDH
[6] = Figure 3, substituted 8-hydroxyquinolines against JMJD2E, read-out: IC50 /μM (qHTS IC50, FDH-coupled assay)
[7] = Table S1, high iron, head says 20 µM FAS, unit not in table, from Figure 2, read-out: qHTS Data: jmjd2e fas20um IC50
[8] = Table S1, low iron 2.5 µM FAS, unit not in table, from Figure 2, read-out: qHTS Data: jmjd2e fas2.5um IC50
[9] = Table S1, unit not in table, from Figure 2, read-out: qHTS Data: jmjd2e IC50
[10] = Table S1, FDH counterscreen, unit not in table, from Figure 2, read-out: qHTS Data: jmjd2e fdh IC50

T2 sequence (P46154 whole entry): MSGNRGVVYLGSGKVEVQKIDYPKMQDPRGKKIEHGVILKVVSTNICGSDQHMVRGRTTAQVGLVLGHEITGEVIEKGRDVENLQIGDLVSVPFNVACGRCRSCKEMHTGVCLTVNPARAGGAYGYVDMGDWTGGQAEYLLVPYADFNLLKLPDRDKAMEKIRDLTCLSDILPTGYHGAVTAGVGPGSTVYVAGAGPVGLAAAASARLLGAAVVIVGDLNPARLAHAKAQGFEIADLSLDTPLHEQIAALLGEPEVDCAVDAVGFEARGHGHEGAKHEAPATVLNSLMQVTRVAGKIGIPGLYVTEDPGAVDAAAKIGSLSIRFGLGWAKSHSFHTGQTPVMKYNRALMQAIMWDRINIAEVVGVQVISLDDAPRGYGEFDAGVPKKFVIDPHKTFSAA

ratio of IC50 values under high iron to low iron ([1]; 25 and 2.5 µM Fe(II)): 5.9
SMILES: O=C(O)CN(CCN(CC(=O)O)CC(=O)O)CC(=O)O [EDTA, reference compound]

SMILES: O=C(Cc1ccccc1)N1CCN(Cc2ccccn2)CC1 [SID 4263376]
IC50 ([2]; IC50 values in μM, FDH, Figure 2, 0.025 U/mL FDH, 10 µM formaldehyde): > 57 µM

SMILES: Oc1ccc(NCc2ccccc2OCc2ccccc2F)cc1 [SID 17385881]
IC50 ([1]; Figure 2, high iron 25 µM Fe(II), read-out: IC50 values in μM, High Fe): 14.1 µM
IC50 [3, 4]: 5 µM
IC50 [2, 5]: > 57 µM

IC50 [3, 4]: 4.5 µM
SMILES: COc1ccccc1NC(=O)c1sc2ncn(Cc3ccccc3C)c(=O)c2c1C [SID 17408386]

SMILES: CC1(OC(=O)CCc2ccccc2)C(=O)C=C2C=C(c3ccc(C#N)cc3)N(C3CC3)C=C2C1=O (stereo not drawn) [SID 26725552]
IC50 [2, 5]: > 57 µM

IC50 ([3]; FDH coupled assay, read-out: IC50 against JMJD2E): 2 µM
IC50 [3, 6]: 2.0 µM
SMILES: O=C(O)c1ccnc2c(O)cccc12 [SID 85736397, 4-carboxy-8-hydroxyquinoline]

SMILES: Oc1ccc(CNc2ccccc2)c2cccnc12 [compound 842629]
IC50 [1, 7]: 14.1 µM
IC50 [1, 8]: 1.26 µM
IC50 [3, 6]: 8.9 µM
IC50 [3, 9]: 8.91 µM
qHTS Data: jmjd2e fdh CurveClass ([2]; Table S1, FDH counterscreen): Inactive

SMILES: O=C(O)C(=O)O.O=C(c1ccccc1)N1CCN(CC2CC=CCC2)CC1 (stereo not drawn) [compound 844960]
qHTS Data: jmjd2e fdh CurveClass ([2]; Table S1, FDH counterscreen): Inconclusive
IC50 [2, 10]: 5.01 µM

IC50 [3, 6]: 36 µM
SMILES: Oc1ccc(COCc2ccccc2)c2cccnc12 [compound 848472]

SMILES: Cc1ccc(NC2=CC(=O)CC(C)(C)C2)c(N)c1 [compound 849268]
qHTS Data: jmjd2e fdh CurveClass ([2]; Table S1, FDH counterscreen): Inactive

SMILES: CCOC(=O)C1CCN(Cc2ccc(O)c3ncccc23)CC1 [compound 850072]
IC50 [1, 7]: 2 µM
IC50 [1, 8]: 4.47 µM
IC50 [3, 9]: 8.91 µM
qHTS Data: jmjd2e fdh CurveClass ([2]; Table S1, FDH counterscreen): Inconclusive

SMILES: O=C(NO)c1ccccc1O [compound 855524]
qHTS Data: jmjd2e fas20um CurveClass ([1]; Table S1, high iron): Inactive
IC50 [1, 8]: 12.6 µM
IC50 [3, 9]: 10 µM
qHTS Data: jmjd2e fdh CurveClass ([2]; Table S1, FDH counterscreen): Poor quality curve
IC50 [2, 10]: 3.55 µM

SMILES: Cl.NC(CO)C(=O)NNCc1ccc(O)c(O)c1O (stereo not drawn) [compound 855739]
IC50 [1, 7]: 3.98 µM
IC50 [1, 8]: 1.78 µM
IC50 [3, 9]: 2.24 µM
qHTS Data: jmjd2e fdh CurveClass ([2]; Table S1, FDH counterscreen): Inactive

IC50 [3, 6]: 8.9 µM
SMILES: OCc1ccnc2c(O)cccc12 [compound 857270]

SMILES: O=C(O)c1cccc(C(=O)O)n1 [compound 863941]
IC50 [1, 7]: 7.94 µM
IC50 [1, 8]: 2.82 µM
IC50 [3, 9]: 8.91 µM
qHTS Data: jmjd2e fdh CurveClass ([2]; Table S1, FDH counterscreen): Inactive

SMILES: CC1=C(C(N)=O)C(c2ccc3c(c2)OCO3)n2nc(-c3cccc(C)c3)nc2N1 (stereo not drawn) [compound 4245376]
qHTS Data: jmjd2e fdh CurveClass ([2]; Table S1, FDH counterscreen): Inactive

SMILES: Cc1nc(NC(=O)c2oc3ccccc3c2C)sc1C(=O)N(C)C [compound 4262050]
qHTS Data: jmjd2e fdh CurveClass ([2]; Table S1, FDH counterscreen): Poor quality curve

SMILES: O=C(Cc1ccccc1)N1CCN(Cc2ccccn2)CC1 [compound 4263376]
qHTS Data: jmjd2e fdh CurveClass ([2]; Table S1, FDH counterscreen): Inactive

SMILES: CC(C)NC[C@H](O)c1ccc(O)c(O)c1 [compound 11112573]
qHTS Data: jmjd2e fdh CurveClass ([2]; Table S1, FDH counterscreen): Inactive

IC50 [3, 6]: > 39 µM
SMILES: Oc1cccc2ccc(/C=C/c3cccs3)nc12 [compound 14734630]

SMILES: O=C(CC1Sc2ncnn2C1=O)Nc1ccccc1 (stereo not drawn) [compound 14735867]
IC50 [2, 10]: 0.28 µM

IC50 [3, 9]: 39.8 µM
SMILES: Cc1ccc2ccc(C(Nc3ccccn3)c3ccccc3)c(O)c2n1 (stereo not drawn) [compound 14737227]

SMILES: Fc1ccc(/C=C2\CCCC3=C2Nc2ncnn2C3c2ccc(F)cc2)cc1 (stereo not drawn) [compound 14745056]
IC50 [2, 10]: 10 µM

SMILES: O=C(NNC(=O)c1ccc(O)cc1O)c1ccc(Cl)cc1 [compound 17414133]
qHTS Data: jmjd2e fdh CurveClass ([2]; Table S1, FDH counterscreen): Inactive

SMILES: Cc1ccc(SCCCCN2CCNCC2)cc1.O=C(O)C(=O)O [compound 17504558]
qHTS Data: jmjd2e fdh CurveClass ([2]; Table S1, FDH counterscreen): Inactive

SMILES: COc1cc(CNCCN2CCOCC2)ccc1OCc1c(Cl)cccc1Cl.Cl [compound 17505294]
qHTS Data: jmjd2e fdh CurveClass ([2]; Table S1, FDH counterscreen): Inactive

SMILES: O=c1cc(O)c2sc(Nc3ccc(F)cc3)nc2[nH]1 [compound 17505973]
qHTS Data: jmjd2e fdh CurveClass ([2]; Table S1, FDH counterscreen): Inactive

SMILES: CCOc1ccc2ccccc2c1/C=N/NC(=O)CNC(=O)C(c1ccccc1)c1ccccc1 [compound 17512004]
IC50 [2, 10]: 10 µM

SMILES: FC(F)(F)c1ccccc1CN1CCN(C2CCCCCC2)CC1.O=C(O)C(=O)O [compound 22403162]
qHTS Data: jmjd2e fdh CurveClass ([2]; Table S1, FDH counterscreen): Inactive

SMILES: C/C(Cn1nnc([N+](=O)[O-])n1)=N\NC(=O)c1ccc(O)cc1O [compound 22414653]
qHTS Data: jmjd2e fdh CurveClass ([2]; Table S1, FDH counterscreen): Inactive
